In ChEMBL document CHEMBL5724696, “Autophagy assay results for EUbOPEN Chemogenomics Library” (2024):
“And” between values parts separate entries of the source, which are not always exact repeats. Identical values can stand only once.

Legend:
U2OS [1] = assay: (§1) Here: values are normalized to the positive (DMSO; basel flux = defined as 100% suppression) and negative (250nM Torin1; mTOR inhibitor; maximal inducer of autophagy defined as 0% suppression) control compounds and represented as % of ER-phagy suppression. […] The impact of autophagy induction on cells is complex and depends on the affected target. […] Of note, treatment concentrations may be sub-optimal for specific compounds, leading to false negative annotations.; assay type: functional, Homo sapiens; settings: Compound Concentration 1 uM, Culturing Media DMEM, 1 % Penicillin/Streptomycin, 10% Fetal bovin serum Add-On: blasticidin, Screening Media Control DMEM, 10% Fetal bovin serum Add-On: 1 µg/ml Doxycyclin, Screening Media Samples DMEM
U2OS [2] = assay: as §1; assay type: functional, Homo sapiens; settings: Compound Concentration 1 uM, Culturing Media DMEM, 1 % Penicillin/Streptomycin, 10% Fetal bovin serum Add-On: blasticidin, Screening Media Control DMEM, 10% Fetal bovin serum Add-On: 1 µg/ml Doxycyclin, Screening Media Samples DMEM; remark: listed apart in the source
[3] = Timepoint 12 hours, 10% Fetal bovin serum Add-On: 1 µg/ml Doxycyclin 250nM Torin1
[4] = Timepoint 24 hours, 10% Fetal bovin serum Add-On: 1 µg/ml Doxycyclin 250nM Torin1
[5] = Timepoint 36 hours, 10% Fetal bovin serum Add-On: 1 µg/ml Doxycyclin 250nM Torin1
[6] = Timepoint 60 hours, 10% Fetal bovin serum Add-On: 1 µg/ml Doxycyclin 250nM Torin1
[7] = Timepoint 54 hours, 10% Fetal bovin serum Add-On: 1 µg/ml Doxycyclin 250nM Torin1
[8] = Timepoint 12 hours, 10% Fetal bovin serum Add-On: 1 µg/ml Doxycyclin 250nM Torin1, 12 h, 1 µM
[9] = Timepoint 24 hours, 10% Fetal bovin serum Add-On: 1 µg/ml Doxycyclin 250nM Torin1, 24 h, 1 µM
[10] = Timepoint 36 hours, 10% Fetal bovin serum Add-On: 1 µg/ml Doxycyclin 250nM Torin1, 36 h, 1 µM
[11] = Timepoint 60 hours, 10% Fetal bovin serum Add-On: 1 µg/ml Doxycyclin 250nM Torin1, 60 h, 1 µM
[12] = Timepoint 54 hours, 10% Fetal bovin serum Add-On: 1 µg/ml Doxycyclin 250nM Torin1, 54 h, 1 µM

Compound	ER-phagy suppression (U2OS [1]; [3]) [%]	ER-phagy suppression (U2OS [1]; [4]) [%]	ER-phagy suppression (U2OS [1]; [5]) [%]	ER-phagy suppression (U2OS [1]; [6]) [%]	ER-phagy suppression (U2OS [2]; [3]) [%]	ER-phagy suppression (U2OS [2]; [4]) [%]	ER-phagy suppression (U2OS [2]; [5]) [%]	ER-phagy suppression (U2OS [2]; [7]) [%]	ER-phagy suppression (U2OS [1]; [8])	ER-phagy suppression (U2OS [1]; [9])	ER-phagy suppression (U2OS [1]; [10])	ER-phagy suppression (U2OS [1]; [11])	ER-phagy suppression (U2OS [2]; [8])	ER-phagy suppression (U2OS [2]; [9])	ER-phagy suppression (U2OS [2]; [10])	ER-phagy suppression (U2OS [2]; [12])
NC(=O)c1ccc2[nH]c(-c3ccc(Oc4ccc(Cl)cc4)cc3)nc2c1	-30.239	-28.4978	-29.0961	-19.7873	-2.841	-13.7146	-23.7031	-21.3336								
COc1cc(Nc2nccc(-c3cnn4nc(OC)ccc34)n2)cc(C(F)(F)F)c1	6.994	7.618	14.0346	17.1827	3.334	-9.159	-23.3987	-10.034								
O=c1cc(N2CCOCC2)oc2c(-c3cccc4c3sc3ccccc34)cccc12	23.1915	21.6983	3.92	-4.5	29.2209	24.7237	22.7043	31.557								
CC(=O)Nc1ccc2ccn(-c3cc(NC4CC4)n4ncc(C#N)c4n3)c2c1	13.0338	48.9829	66.3165	75.9257	46.1231	56.6622	75.9855	85.4784								
C[C@@H]1CN(CC(=O)Nc2ccc3c(c2)Cc2cccc(-c4cc(=O)cc(N5CCOCC5)o4)c2S3)C[C@H](C)O1	56.3007	45.431	40.5334	35.1087	73.6735	67.8887	67.4998	71.8155								
O=c1[nH]c2ccc(Cl)cc2c(N[C@@H]2CN3CCC2CC3)c1-c1nc2ccccc2[nH]1	-7.286	62.247	75.9097	86.9183	27.312	66.3141	83.8118	95.864								
O=C(O)CSc1ncnc2cc(-c3cc4ccccc4s3)sc12	-19.6328	-17.1874	-14.8161	-4.092	0.5897	-12.2442	-19.5389	-8.371								
O=C(O)CSc1ncnc2sc(-c3cc4ccccc4s3)cc12	-22.3534	-5.037	-13.712	-10.482	-2.052	-18.7288	-21.1701	-12.8701								
COc1cc(Nc2nc(C)cc(-c3cnn4nc(OC)ccc34)n2)cc(C(F)(F)F)c1	-18.8933	-32.8701	-15.1622	-1.233	-17.1977	-30.7	-31.3882	-33.2663								
CCC(=O)Nc1cc(Nc2cc(NC3CC3)n3ncc(C#N)c3n2)ccc1C									25.0893% and 12.0462%	43.9531% and 30.6203%	57.0471% and 46.34%	65.9791% and 54.7573%	67.8996% and 33.7182%	72.4419% and 40.8117%	80.6378% and 60.338%	84.9565% and 68.6565%
CN(C)[C@H]1C[C@H](n2cnc(-c3ccc(F)cn3)c2-c2ccnc3[nH]ccc23)C1	23.5482	2.98	12.4603	17.3235	22.3816	21.0505	31.8624	38.0418								
Cn1ccc(Cn2cnc(-c3ccc(F)cc3)c2-c2ccnc3[nH]ccc23)n1	-25.1326	-19.5738	5.753	8.035	3.096	-2.866	1.074	6.853								
CN(C)C1CC(n2cnc(-c3ccc(F)cc3)c2-c2ccnc3[nH]ccc23)C1 (configuration not stated)	-29.1009	-31.4509	-16.9551	-15.1332	7.195	4.326	10.3106	11.0097								
Cc1ccc(N(C)c2cc(N(C)C3CC3)n3ncc(C#N)c3n2)cc1NC(=O)C1CC1	27.2035	42.1045	58.091	60.0735	38.742	47.4692	65.8045	75.1314								
Fc1ccc(-c2ncn(Cc3nc[nH]n3)c2-c2ccnc3[nH]ccc23)cc1	1.163	2.249	8.909	19.5799	-8.055	-11.2707	-18.4467	-16.7104								
CN(C)C/C=C/C(=O)Nc1cc2c(Nc3ccc(F)c(Cl)c3)ncnc2cc1O[C@H]1CCOC1 [AFATINIB]	20.6411	25.6226	22.4767	26.9133	-20.9199	-7.924	-3.193	3.819								
COc1cc(Nc2ncc3c(n2)-c2ccc(Cl)cc2C(c2c(F)cccc2OC)=NC3)ccc1C(=O)O [ALISERTIB]									32.5772% and 15.1943%	46.3416% and 31.463%	37.5206% and 17.8935%	42.3508% and 18.9115%	17.2717% and 22.6318%	12.1028% and 15.999%	-4.94% and 1.582%	5.417% and 8.819%
Cc1cnc(-c2cc(Cl)ccc2F)cc1-n1c(=O)n(CC(N)=O)c2ccccc21 [Al11]	-12.5733	-18.3016	-21.1778	-20.9921	-9.163	-26.2915	-35.1418	-38.7834								
Cc1cc(NC(=O)c2cccc(S(F)(F)(F)(F)F)c2)cc(-n2ccn3nc(-c4cccnc4)cc23)c1 [BAY-309]	7.299	1.781	3.502	-2.656	7.105	-8.178	-9.412	-2.397								
